In patent US9695155B2, “Herbicidal substituted pyrimidinyloxy benzene compounds” (E. I. DU PONT DE NEMOURS AND COMPANY, priority 2013, dated 2017):

Tests used:
[1] = system: galium; assay: Test C postemergence; assay type: in vivo, Galium aparine
How it was run: (§1)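 Greenhouse herbicide screen. Pre: seeded loam/sand, sprayed at planting. Post: 1–4 leaf plants (2–18 cm) in peat-based mix. Formulation: solvent mixture + surfactant, non-phytotoxic. Readout: visual % control vs untreated, 13–15 d; dash = not tested.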

[2] = system: morningglory; assay: Test A preemergence; assay type: in vivo, Ipomoea spp.
How it was run: (§2)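 Visual 0–100 rating (100 = complete control) taken about 10 d post-treatment relative to untreated checks. Preemergence: directed soil spray on sown loam/sand pots. Postemergence: seedlings 2–10 cm, 1–2 leaf. Non-phytotoxic solvent formulation with surfactant.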

[3] = system: oilseed rape; assay: Test C postemergence; assay type: in vivo, Brassica napus
How it was run: as §1

[4] = system: blackgrass; assay: Test C postemergence; assay type: in vivo, Alopecurus myosuroides
How it was run: as §1

[5] = system: giant foxtail; assay: Test A preemergence; assay type: in vivo, Setaria faberii
How it was run: as §2

[6] = system: pigweed; assay: Test C postemergence; assay type: in vivo, Amaranthus retroflexus
How it was run: as §1

[7] = system: ragweed; assay: Test C postemergence; assay type: in vivo, Ambrosia elatior
How it was run: as §1

[8] = system: velvetleaf; assay: Test A postemergence; assay type: in vivo, Abutilon theophrasti; conditions: 0 to 100 scale where 0 is no effect and 100 is complete control
How it was run: as §2

[9] = system: velvetleaf; assay: Test A preemergence; assay type: in vivo, Abutilon theophrasti
How it was run: as §2

[10] = system: wheat; assay: Test A preemergence; assay type: in vivo, Triticum aestivum
How it was run: as §2

[11] = system: kochia; assay: Test C postemergence; assay type: in vivo, Kochia scoparia
How it was run: as §1

[12] = system: velvetleaf; assay: Test C postemergence; assay type: in vivo, Abutilon theophrasti
How it was run: as §1

[13] = system: corn; assay: Test A postemergence; assay type: in vivo, Zea mays; conditions: 0 to 100 scale where 0 is no effect and 100 is complete control
How it was run: as §2

[14] = system: waterhemp; assay: Test C postemergence; assay type: in vivo, Amaranthus rudis
How it was run: as §1

[15] = system: soybean; assay: Test C postemergence; assay type: in vivo, Glycine max
How it was run: as §1

[16] = system: morningglory; assay: Test A postemergence; assay type: in vivo, Ipomoea spp.; conditions: 0 to 100 scale where 0 is no effect and 100 is complete control
How it was run: as §2

[17] = system: johnsongrass; assay: Test C postemergence; assay type: in vivo, Sorghum halepense
How it was run: as §1

[18] = system: wheat, winter; assay: Test C postemergence; assay type: in vivo, Triticum aestivum
How it was run: as §1

[19] = 16 g ai/ha, postemergence, 0 is no effect, 100 is complete control
[20] = 31 g ai/ha, postemergence, visual rating, scale 0 to 100 (0 no effect, 100 complete control), 13 to 15 days
[21] = 125 g ai/ha, postemergence, visual rating, scale 0 to 100 (0 no effect, 100 complete control)
[22] = Postemergence, 62 g ai/ha, scale 0 to 100 (0 no effect, 100 complete control), 13 to 15 days
[23] = 500 g ai/ha, 0 to 100 scale where 0 is no effect and 100 is complete control

Clc1cnc(Oc2cccc(Br)c2-n2cc(Cl)cn2)nc1 [Compound 221]
100: Foxtail, Giant plant response rating (0 to 100 scale) ([5]; 125 g ai/ha) | Foxtail, Giant plant response rating [5, 23] | Velvetleaf plant response rating ([8]; 125 g ai/ha) | Plant response rating, Velvetleaf ([8]; 500 g ai/ha) | Plant response rating, Morningglory ([16]; 500 g ai/ha)
90: Plant response rating, Galium [1, 21] | Plant response rating (0 to 100), Kochia [11, 19] | Morningglory plant response rating ([16]; 125 g ai/ha)
60: Plant response rating (0 to 100), Galium [1, 19] | Plant response rating, Oilseed Rape [3, 22] | Plant response rating (0 to 100), Pigweed [6, 19]
30: Plant response rating (0 to 100), Soybean [15, 19]
0: Morningglory plant response rating (0 to 100 scale) ([2]; 125 g ai/ha) | Plant response rating (0 to 100), Blackgrass [4, 19] | Blackgrass plant response rating [4, 20] | Wheat plant response rating (0 to 100 scale) ([10]; 125 g ai/ha) | Plant response rating (0 to 100), Wheat [18, 19] | Wheat plant response rating [18, 20] | Plant response rating, Wheat [18, 21] | Plant response rating, Wheat [18, 22]
95: Plant response rating, Kochia [11, 21] | Plant response rating, Kochia [11, 22]
20: Plant response rating, Ragweed [7, 22] | Plant response rating, Johnsongrass [17, 21]
50: Oilseed Rape plant response rating [3, 20] | Plant response rating, Pigweed [6, 22] | Plant response rating, Corn ([13]; 500 g ai/ha)
80: Plant response rating, Oilseed Rape [3, 21] | Kochia plant response rating [11, 20] | Plant response rating, Waterhemp [14, 21] | Plant response rating, Waterhemp [14, 22] | Plant response rating, Soybean [15, 21]
40: Plant response rating (0 to 100), Oilseed Rape [3, 19]
10: Morningglory plant response rating [2, 23] | Plant response rating, Ragweed [7, 21] | Velvetleaf plant response rating (0 to 100 scale) ([9]; 125 g ai/ha) | Wheat plant response rating [10, 23] | Corn plant response rating ([13]; 125 g ai/ha)
55: Galium plant response rating [1, 20] | Plant response rating, Galium [1, 22] | Soybean plant response rating [15, 20]
35: Plant response rating (0 to 100), Velvetleaf [12, 19] | Velvetleaf plant response rating [12, 20]
75: Pigweed plant response rating [6, 20] | Plant response rating, Velvetleaf [12, 21]
65: Plant response rating (0 to 100), Waterhemp [14, 19] | Plant response rating, Soybean [15, 22]
5: Plant response rating, Blackgrass [4, 21] | Plant response rating, Blackgrass [4, 22] | Plant response rating (0 to 100), Ragweed [7, 19] | Ragweed plant response rating [7, 20] | Plant response rating (0 to 100), Johnsongrass [17, 19] | Johnsongrass plant response rating [17, 20] | Plant response rating, Johnsongrass [17, 22]
70: Velvetleaf plant response rating [9, 23] | Waterhemp plant response rating [14, 20]
85: Plant response rating, Pigweed [6, 21]
45: Plant response rating, Velvetleaf [12, 22]
